Experimental data published in the NIST ThermoML archive (doi:10.1016/j.fluid.2008.10.003).
± gives the expanded uncertainty stated by the source.

Experiment: isobaric coefficient of expansion; xn = mol fraction of the nth substance listed
Settings: 328.15 K, calorimetric method

CCCCCCO [hexan-1-ol] + CCCCCC
isobaric coefficient of expansion
Settings | 5000 kPa | 10000 kPa | 15000 kPa | 20000 kPa | 25000 kPa | 30000 kPa | 35000 kPa | 40000 kPa | 45000 kPa | 50000 kPa
x1 = 0.0321 | 0.00143 ± 6.1e-05 1/K | 0.00135 ± 5.7e-05 1/K | 0.00128 ± 5.4e-05 1/K | 0.00122 ± 5.2e-05 1/K | 0.00117 ± 4.9e-05 1/K | 0.00112 ± 4.8e-05 1/K | 0.00108 ± 4.6e-05 1/K | 0.00104 ± 4.4e-05 1/K | 0.00101 ± 4.3e-05 1/K | 0.000976 ± 4.1e-05 1/K
x1 = 0.041 | 0.00143 ± 6.1e-05 1/K | 0.00135 ± 5.7e-05 1/K | 0.00128 ± 5.4e-05 1/K | 0.00122 ± 5.2e-05 1/K | 0.00117 ± 4.9e-05 1/K | 0.00112 ± 4.8e-05 1/K | 0.00108 ± 4.6e-05 1/K | 0.00103 ± 4.4e-05 1/K | 0.001 ± 4.3e-05 1/K | 0.000972 ± 4.1e-05 1/K
x1 = 0.0946 | 0.00141 ± 6e-05 1/K | 0.00133 ± 5.6e-05 1/K | 0.00126 ± 5.4e-05 1/K | 0.0012 ± 5.1e-05 1/K | 0.00116 ± 4.9e-05 1/K | 0.00111 ± 4.7e-05 1/K | 0.00107 ± 4.5e-05 1/K | 0.00103 ± 4.4e-05 1/K | 0.001 ± 4.2e-05 1/K | 0.000972 ± 4.1e-05 1/K
x1 = 0.1679 | 0.00136 ± 5.8e-05 1/K | 0.0013 ± 5.5e-05 1/K | 0.00123 ± 5.2e-05 1/K | 0.00118 ± 5e-05 1/K | 0.00113 ± 4.8e-05 1/K | 0.00109 ± 4.6e-05 1/K | 0.00105 ± 4.5e-05 1/K | 0.00101 ± 4.3e-05 1/K | 0.000982 ± 4.2e-05 1/K | 0.000952 ± 4e-05 1/K
x1 = 0.2153 | 0.00134 ± 5.7e-05 1/K | 0.00127 ± 5.4e-05 1/K | 0.00121 ± 5.1e-05 1/K | 0.00116 ± 4.9e-05 1/K | 0.00112 ± 4.7e-05 1/K | 0.00107 ± 4.6e-05 1/K | 0.00104 ± 4.4e-05 1/K | 0.000999 ± 4.2e-05 1/K | 0.000971 ± 4.1e-05 1/K | 0.000945 ± 4e-05 1/K
x1 = 0.3016 | 0.00129 ± 5.5e-05 1/K | 0.00122 ± 5.2e-05 1/K | 0.00117 ± 5e-05 1/K | 0.00112 ± 4.7e-05 1/K | 0.00108 ± 4.6e-05 1/K | 0.00104 ± 4.4e-05 1/K | 0.00101 ± 4.3e-05 1/K | 0.000975 ± 4.1e-05 1/K | 0.000948 ± 4e-05 1/K | 0.000922 ± 3.9e-05 1/K
x1 = 0.4075 | 0.00123 ± 5.2e-05 1/K | 0.00117 ± 5e-05 1/K | 0.00113 ± 4.8e-05 1/K | 0.00108 ± 4.6e-05 1/K | 0.00104 ± 4.4e-05 1/K | 0.00101 ± 4.3e-05 1/K | 0.000977 ± 4.1e-05 1/K | 0.000948 ± 4e-05 1/K | 0.00092 ± 3.9e-05 1/K | 0.000894 ± 3.8e-05 1/K
x1 = 0.503 | 0.00118 ± 5e-05 1/K | 0.00113 ± 4.8e-05 1/K | 0.00108 ± 4.6e-05 1/K | 0.00104 ± 4.4e-05 1/K | 0.00101 ± 4.3e-05 1/K | 0.000979 ± 4.2e-05 1/K | 0.000952 ± 4e-05 1/K | 0.000922 ± 3.9e-05 1/K | 0.000899 ± 3.8e-05 1/K | 0.000877 ± 3.7e-05 1/K
x1 = 0.594 | 0.00113 ± 4.8e-05 1/K | 0.00108 ± 4.6e-05 1/K | 0.00105 ± 4.4e-05 1/K | 0.00101 ± 4.3e-05 1/K | 0.00098 ± 4.2e-05 1/K | 0.000949 ± 4e-05 1/K | 0.000921 ± 3.9e-05 1/K | 0.000893 ± 3.8e-05 1/K | 0.000872 ± 3.7e-05 1/K | 0.000851 ± 3.6e-05 1/K
x1 = 0.6827 | 0.00108 ± 4.6e-05 1/K | 0.00104 ± 4.4e-05 1/K | 0.00101 ± 4.3e-05 1/K | 0.000973 ± 4.1e-05 1/K | 0.000945 ± 4e-05 1/K | 0.000918 ± 3.9e-05 1/K | 0.000891 ± 3.8e-05 1/K | 0.000865 ± 3.7e-05 1/K | 0.000843 ± 3.6e-05 1/K | 0.000823 ± 3.5e-05 1/K
x1 = 0.8013 | 0.00102 ± 4.3e-05 1/K | 0.000985 ± 4.2e-05 1/K | 0.000957 ± 4.1e-05 1/K | 0.000926 ± 3.9e-05 1/K | 0.0009 ± 3.8e-05 1/K | 0.000874 ± 3.7e-05 1/K | 0.00085 ± 3.6e-05 1/K | 0.000825 ± 3.5e-05 1/K | 0.000808 ± 3.4e-05 1/K | 0.000789 ± 3.3e-05 1/K
x1 = 0.8934 | 0.000972 ± 4.1e-05 1/K | 0.000945 ± 4e-05 1/K | 0.000917 ± 3.9e-05 1/K | 0.000889 ± 3.8e-05 1/K | 0.000869 ± 3.7e-05 1/K | 0.000845 ± 3.6e-05 1/K | 0.000823 ± 3.5e-05 1/K | 0.000802 ± 3.4e-05 1/K | 0.000783 ± 3.3e-05 1/K | 0.000767 ± 3.3e-05 1/K
x1 = 1 | 0.000929 ± 3.9e-05 1/K | 0.0009 ± 3.8e-05 1/K | 0.000876 ± 3.7e-05 1/K | 0.000854 ± 3.6e-05 1/K | 0.000833 ± 3.5e-05 1/K | 0.000813 ± 3.4e-05 1/K | 0.000794 ± 3.4e-05 1/K | 0.000776 ± 3.3e-05 1/K | 0.000759 ± 3.2e-05 1/K | 0.000745 ± 3.2e-05 1/K
